Results from PubChem BioAssay (NCI).
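Values below derive from 48-hour exposures of cells grown in 96-well plates, with endpoints linearly interpolated between the two concentrations bracketing the appropriate inhibition level. Here, GI50 denotes the concentration required for 50% inhibition of growth. The concentration for full growth arrest is given as TGI.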

Tests used:
Assay in all cases: NCI tumour cell line growth inhibition, 48 h
HOP-18 NSCLC = test system: HOP-18 NSCLC
KM20L2 colon = test system: KM20L2 colon
DMS 273 small cell lung = test system: DMS 273 small cell lung
M19-MEL melanoma = test system: M19-MEL melanoma
XF 498 CNS = test system: XF 498 CNS
DMS 114 small cell lung = test system: DMS 114 small cell lung
RXF-631 renal = test system: RXF-631 renal
MDA-N = test system: MDA-N

Row | Structure (SMILES) | TGI (HOP-18 NSCLC) | TGI (KM20L2 colon) | TGI (DMS 273 small cell lung) | TGI (M19-MEL melanoma) | TGI (XF 498 CNS) | TGI (DMS 114 small cell lung) | TGI (RXF-631 renal) | further results
1 | NC12CC3CC(C1)CC(C(=O)O)(C3)C2 | > 100 µM | > 100 µM | > 100 µM | > 100 µM | > 100 µM | > 100 µM |  | 
2 | O=[N+]([O-])c1ccc(C=NC2CCCCC2)cc1 | > 100 µM | > 100 µM | > 100 µM | > 100 µM | > 100 µM | > 100 µM | > 100 µM | 
3 | CCCC1N2CCCCC2[C@@H]2c3[nH]c4ccccc4c3CCN12 (stereo not given in full) | > 100 µM | > 100 µM | > 100 µM | > 100 µM | > 100 µM | > 100 µM |  | 
4 | CN(C)CCNC(=O)c1cccc2ccc(-c3ccncc3)nc12 | 9.18 µM |  | 7.76 µM | 4.86 µM |  | 8.95 µM |  | 
5 | CC(C)(CO)N1CCN(C(=S)Nc2ccccc2)CC1 |  |  |  |  |  |  |  | TGI (MDA-N): > 100 µM
6 | Cc1c(C(=O)C/C(=N/NC(=O)C[N+](C)(C)C)C(=O)Nc2ccc(Cl)cc2)[n+](=O)c2ccccc2n1O | > 100 µM | > 100 µM | > 100 µM | > 100 µM | > 100 µM | > 100 µM | > 100 µM | 
7 | COCCCNC(=O)C1C(=O)C(=O)N(CCCOC)C1=O (stereo not given) | > 100 µM | > 100 µM | > 100 µM | > 100 µM |  | > 100 µM | > 100 µM | 
8 | O=C(O)C(CS)Nc1c2ccccc2nc2ccccc12 (stereo not given) |  | > 100 µM | > 100 µM | > 100 µM | > 100 µM | > 100 µM |  | 
9 | O=C1c2ccccc2C(=O)N1CCc1ncc[nH]1 |  |  |  |  |  |  |  | TGI (MDA-N): > 100 µM
10 | C[C@@H]1OC(=O)N2CCCC(=C3SCCCS3)C12 (stereo not given in full) | > 100 µM | > 100 µM | > 100 µM | > 100 µM | > 100 µM | > 100 µM |  | 
11 | C/C(O)=C(\N=O)C(=O)Nc1ccc(Cl)cc1Cl | > 100 µM | > 100 µM | > 100 µM | > 100 µM |  | > 100 µM |  | 
12 | N#C/C(=C\c1ccc2ccccc2c1)c1ccccc1 | > 100 µM | 34.9 µM | 35.8 µM | > 100 µM |  |  | > 100 µM | 
13 | COC1(OC)CC2OC1C1N=NN(C(=O)OC(C)(C)C)C21 (stereo not given) | > 100 µM | > 100 µM | > 100 µM | > 100 µM | > 100 µM | > 100 µM | > 100 µM | 
14 | COc1ccc(C(=O)C#Cc2cnc(OC)nc2OC)cc1 |  |  |  |  |  |  |  | TGI (MDA-N): 3.89 µM
15 | CC(C)(C)c1cc(CCC(=O)Nc2ccc(Cl)cc2)nc(NC#N)n1 | > 100 µM | > 100 µM | > 100 µM | > 100 µM |  |  |  | 
16 | COc1ccc(NC(=O)CC(=O)N/N=C/c2ccc(N(CCC#N)S(C)(=O)=O)cc2)cc1 | > 100 µM | > 100 µM | > 100 µM | > 100 µM |  | > 100 µM | > 100 µM | 
17 | Nc1c(-c2ccc(Cl)cc2)[n+]([O-])c2ccccc2[n+]1[O-] | > 100 µM | > 100 µM | > 100 µM | > 100 µM | > 100 µM | > 100 µM |  | 
18 | CC(SC(=S)N1CCOCC1)c1cc2oc(=O)n(C)c2cc1Cl (stereo not given) | > 100 µM | > 100 µM | > 100 µM | > 100 µM | > 100 µM | > 100 µM |  | 
19 | O=C(CCc1cc(-c2ccccc2)nc(=S)[nH]1)N(Cc1ccccc1)Cc1ccccc1 | > 100 µM | > 100 µM | > 100 µM | > 100 µM | > 100 µM | > 100 µM |  | 

Row | Structure (SMILES) | TGI (HOP-18 NSCLC) | TGI (KM20L2 colon) | TGI (DMS 273 small cell lung) | TGI (M19-MEL melanoma) | TGI (XF 498 CNS) | TGI (DMS 114 small cell lung) | TGI (RXF-631 renal) | further results
20 | COc1ccc2c(c1)[n+](=O)c(C(=O)C/C(=N/OCCCc1ccccc1)C(=O)NC13CC4CC(CC(C4)C1)C3)c(C)n2[O-] | > 100 µM | > 100 µM | > 100 µM | > 100 µM | > 100 µM | > 100 µM | > 100 µM | 
21 | Nc1cccc(S(=O)(=O)NCC(=O)O)c1 | > 100 µM | > 100 µM | > 100 µM | > 100 µM | > 100 µM | > 100 µM | > 100 µM | 
22 | Cc1cc(Cl)cc2c1NC(=O)C2(O)CC(=O)c1ccco1 (stereo not given) | > 100 µM |  | > 100 µM | 30.9 µM | > 100 µM | > 100 µM | > 100 µM | TGI (MDA-N): 22.9 µM
23 | CCc1ccccc1NC(=O)C1=C(C)NC(C)=C(C(=O)Nc2ccccc2CC)C1c1ccc2c(c1)OCO2 |  |  |  | > 100 µM | 70.4 µM | > 100 µM |  | 
24 | O=C(O)c1nn(-c2ccccc2-c2n[nH]c(=O)[nH]c2=O)c(=O)[nH]c1=O |  |  |  |  |  |  |  | TGI (MDA-N): > 100 µM
25 | NC1=NC(c2ccccc2)CC(c2cc(Cl)ccc2O)=N1 (stereo not given) | 35.6 µM | 31.8 µM | 25.6 µM | 29.5 µM | 33.7 µM | 25.6 µM |  | 
26 | O=C(CC1(O)C(=O)Nc2c(Cl)ccc(Cl)c21)c1ccc(F)cc1 (stereo not given) | > 100 µM | > 100 µM | > 100 µM |  | 77.1 µM | 52.1 µM | > 100 µM | 
27 | O=C(O)CCSC(=O)Nc1ccc([N+](=O)[O-])cc1 |  |  | > 100 µM |  |  | > 100 µM |  | 
28 | O=C1C(Cl)=C(NCCN2CCOCC2)C(=O)c2ncccc21 |  |  |  |  |  |  |  | TGI (MDA-N): 0.389 µM
29 | COc1ccc2nc3c(C(=O)NCCN(C)C)cccc3nc2c1 | > 100 µM |  | 23.8 µM | 22.2 µM |  | 20.2 µM |  | 
30 | COc1cc(C(=O)CBr)c(OC)cc1C |  |  |  |  |  |  |  | TGI (MDA-N): > 100 µM
31 | O=C1c2cccc([N+](=O)[O-])c2C(=O)N1c1ncn[nH]1 |  |  |  |  |  |  |  | TGI (MDA-N): > 100 µM
32 | O=C(N/C(=C\c1cccc([N+](=O)[O-])c1)c1nc2ccc([N+](=O)[O-])cc2[nH]1)c1ccccc1 |  | > 100 µM | > 100 µM | > 100 µM | 59.8 µM |  | > 100 µM | 
33 | CC1CN1C(=O)NCCCCCCNC(=O)N1CC1C (stereo not given) | > 100 µM | > 100 µM | > 100 µM | > 100 µM | > 100 µM | 98.3 µM |  | TGI (MDA-N): > 100 µM
34 | CC(=O)O[C@H]1C(=O)[C@@]2(C)C(C(OC(=O)c3ccccc3)[C@]3(O)CC(OC(=O)[C@H](OC(=O)CCC(=O)O)C(NC(=O)c4ccccc4)c4ccccc4)C(C)=C1C3(C)C)C1(OC(C)=O)COC1C[C@@H]2O (stereo not given in full) |  |  |  |  |  |  |  | TGI (MDA-N): < 0.01 µM
35 | CCC[CH2][Sn]1([CH2]CCC)[O]C(=O)CN=Cc2c(ccc3ccccc23)[O]1 | 1.52 µM | 2.29 µM | 2.22 µM | 1.23 µM | > 100 µM | 0.299 µM | 0.0331 µM | GI50 (HOP-18 NSCLC): 0.223 µM; GI50 (KM20L2 colon): 1.09 µM; GI50 (DMS 273 small cell lung): 1 µM; GI50 (RXF-631 renal): 0.0181 µM; GI50 (M19-MEL melanoma): 0.299 µM; GI50 (XF 498 CNS): > 100 µM; GI50 (DMS 114 small cell lung): 0.139 µM
36 | CCN(CC)C(c1ccc(N(C)C)cc1)C(c1ccc(N(C)C)cc1)N(CC)CC (stereo not given) |  | > 73 µM | > 73 µM | > 73 µM |  | 40.6 µM | > 73 µM | 
37 | CCOC(=O)/C(C#N)=C/c1[nH]c(C(=O)OCc2ccccc2)c(C)c1C | > 100 µM | > 100 µM | > 100 µM | > 100 µM |  | > 100 µM | > 100 µM | 
38 | O=C(O)C(=Cc1ccc(-c2ccccc2)cc1)C(=O)O |  |  |  |  |  |  |  | TGI (MDA-N): > 100 µM
